Legend:
[1] = test system: SH-SP rats with MCA permanent occlusion; assay: TTC staining of cerebral infarct lesion 24 hours after MCA permanent occlusion; type: in vivo, rat
[2] = test system: Wistar rats with spinal cord injury; assay: Spinal cord injury model (20 g compression on lower thoracic cord for 20 minutes); type: in vivo, rat; settings: for paralysis or paraplegia of both lower limbs: Solu-Medrol intravenous 30 mg/kg on the same schedule, 30 mg/kg
Description: The present inventors have investigated the effects of repetitive or continuous intravenous administration of ginsenoside Rb1 using rats with spinal cord injury and the effects were compared with those of repetitive or continuous intravenous administration of a crude saponin fraction of medicinal ginseng. If pressure is loaded on certain spinal segments such as the lower thoracic cord, not only nerve cells (neurons) in the gray matter of the same region but also fiber tracts or pathways in the white matter of the same region are damaged. The damages to the fiber tracts or pathways of the white matter are further developed to the distal portions (caudal portions) as well as causing the secondary degeneration of the origins of the fiber tract or pathways, namely the upper nerve cell bodies (i.e. origins) which project fibers (nerve processes) to the fiber tracts or pathways. As a result, the damages to the fiber tracts or pathways of the white matter in the lower thoracic cord, which received compression loading, induce the secondary degeneration of the origins (nerve cell bodies) sending fibers (also termed nerve processes or axons) to the fiber tracts or pathways as well as the secondary degeneration of fiber tracts located distal to the lower thoracic cord (i.e. lumbar cord and sacral cord) to cause paraplegia of both limbs. Further, since the innervation from the brain regions proximal to the lumbar cord and sacral cord is cut off due to damage to the lower thoracic cord, the secondary degeneration of nerve cells in the gray matters of the lumbar cord and sacral cord is further induced, as a result, paraplegia of the limbs can not be recovered. For that model of the spinal cord injury, the present inventors have used male Wistar rats (body weight about 300 g) loaded with 20 g of compression on the lower thoracic cord for 20 minutes.
Under inhalation anesthesia by a mixture of nitrous oxide and halothane, the rats were loaded with 20 g of compression on the lower thoracic cord for 20 minutes. After more than 30 minutes passed, ginsenoside Rb1 dissolved in physiological saline was injected once into the left femoral vein (12 μg or 60 μg), thereafter continuous or repetitive intravenous administration of ginsenoside Rb1 was performed for 7 days by using an Alza osmotic minipump (12 μg/day or 60 μ/day). Control animals and sham-operated animals were administered with the same amount of physiological saline (vehicle) alone. The open field locomotor scores [Basso, Bettie and Bresnakan (BBB) scores] were measured in each animal before loading spinal cord injury, on the day of spinal cord injury and from 1st day to 7th day after the spinal cord injury for use as an index of motor functions (Basso D. M. et al., J. Neurotrauma, 13, 343-359, 1996). BBB scores of the sham-operated rats (normal rats) were 20-21.
Under inhalation anesthesia by a mixture of nitrous oxide and halothane, the rats were loaded with 20 g of compression on the lower thoracic cord for 20 minutes. More than 30 minutes later, the crude saponin fraction dissolved in physiological saline was infused once into the left femoral vein (870 μg), thereafter continuous intravenous administration of the crude saponin fraction was performed for 7 days by using an Alza osmotic minipump (870 μg/day). Control animals with spinal cord injuries were administered with the same amount of physiological saline (vehicle) alone. […] These figures are photographs in place of drawings.
Under inhalation anesthesia by a mixture of nitrous oxide and halothane, wistar rats (body weight about 300 g) were loaded with 20 g of compression on the lower thoracic cord for 20 minutes. After they were awakened from anesthesia, the rats with paraplegia in both hindlimbs were allowed to stay for 1 hour and 40 minutes in the cage. […]

Row | SMILES | cerebral infarct lesion (TTC staining) ([1]; dihydroginsenoside Rb1 intravenous 6 μg/day for 24 hours after MCA permanent occlusion) | volume of cerebral infarct lesion relative to non-administered group ([1]; intravenous low doses) | experimental animals died within 7 days after spinal cord injuries ([2]; Solu-Medrol 30 mg/kg, 4 out of 10 rats) | paralysis or paraplegia of both lower limbs [2] | paralysis or paraplegia of both lower limbs ([2]; listed as Solu-Medol) | healing of the operative dorsal wounds / ill effects ([2]; rat, in vivo)
1 | CC(C)CCC[C@](C)(O[C@@H]1O[C@H](CO[C@@H]2O[C@H](CO)[C@@H](O)[C@H](O)[C@H]2O)[C@@H](O)[C@H](O)[C@H]1O)[C@H]1CC[C@]2(C)[C@@H]1[C@H](O)C[C@@H]1[C@@]3(C)CC[C@H](O[C@@H]4O[C@H](CO)[C@@H](O)[C@H](O)[C@H]4O[C@@H]4O[C@H](CO)[C@@H](O)[C@H](O)[C@H]4O)C(C)(C)[C@@H]3CC[C@]12C [dihydroginsenoside Rb1] | markedly reduced | about ¼ | – | – | – | –
2 | C[C@H]1C[C@@H]2[C@H]([C@@H](O)C[C@@]3(C)[C@H]2CC[C@]3(O)C(=O)COC(=O)CCC(=O)[O-])[C@@]2(C)C=CC(=O)C=C12.[Na+] [reference compound] | – | – | about 40% | no significant ameliorating effects | could not ameliorate | obviously delayed

From patent publication US7235267B1, “Brain cell or nerve cell-protecting agents comprising medicinal ginseng” (priority 1999, dated 2007)
